According to patent US20260216131A1, “METHODS OF TREATING BREAST HYPERPLASIA USING TEZACAFTOR” (Jiangsu Bioscene Pharmaceutical Co., Ltd., priority 2023, published 2026):
Values joined by “and” are separate entries in the source; they are usually repeats but may differ in a detail not shown here. Identical values can stand only once. “Also recorded” adds a separate entry of the source.

Legend:
Format in all cases: in vivo
[1] = tested on: rat model of breast hyperplasia; assay: Nipple diameter and height in rat model of breast hyperplasia; conditions: for Nipple Height / Nipple Diameter: female SD rats, gavage, tezacaftor 40 mg/kg/day, tamoxifen 4 mg/kg/day; for Nipple Diameter: in mm (unit assumed); for Change in nipple diameter compared with the model group / Change in nipple height compared with the model group: after 30 days of administration, result in words
Excerpt: (§1) Study Design: Thirty-two female SD rats, aged 7-8 weeks and weighing 200-250 g, were used. The rats were randomly divided into four groups: a normal control group, a model group, a tezacaftor treatment group (hereinafter referred to as the “treatment group”), and a tamoxifen treatment group (hereinafter referred to as the “positive control group”).
(§2) Before administration of the test drugs, breast hyperplasia was induced in the rats of the model group, the treatment group, and the positive control group. Specifically, estradiol benzoate injection was intramuscularly administered to the inner thigh of each rat at a dose of 0.5 mg/kg/day for 25 consecutive days. Starting on day 26, progesterone injection was intramuscularly administered to the inner thigh at a dose of 5 mg/kg/day for 5 consecutive days. The total modeling period was 30 days.
(§3) Normal control group: Normal saline in an equal volume was intramuscularly administered to the inner side of the hind limb of each rat once daily for 30 consecutive days, with the left and right hind limbs injected alternately. Beginning on day 31, normal saline was administered by gavage for 30 days.
(§4) Model group: Beginning on day 31, the vehicle was administered by gavage for 30 consecutive days. Samples were collected 0.5 hour after the last administration.
(§5) Treatment group: Beginning on day 31, tezacaftor was administered by gavage at a dose of 40 mg/kg/day for 30 consecutive days. Samples were collected 0.5 hour after the last administration.
(§6) Positive control group: Beginning on day 31, tamoxifen was administered by gavage at a dose of 4 mg/kg/day for 30 consecutive days. Samples were collected 0.5 hour after the last administration.
Evaluation indices: (1) nipple diameter and height; (2) ovarian index and uterine index; (3) changes in serum E2 and PROG levels; and (4) the number of mammary lobular acini, the acinar lumen diameter, and the duct diameter in rats. […]

[2] = tested on: rat model of breast hyperplasia; assay: Ovarian index and uterine index in rat model of breast hyperplasia; conditions: after 30 days of administration; for Ovarian index (ovary weight/body weight) / Uterine index (uterine weight/body weight): gavage, tezacaftor 40 mg/kg/day, tamoxifen 4 mg/kg/day; for Change in ovarian index compared with the model group / Change in uterine index compared with the model group: result in words
Excerpt: as §1, §2, §3, §4, §5, §6
(§7) Evaluation indices: (1) nipple diameter and height; (2) ovarian index and uterine index; (3) changes in serum E2 and PROG levels; and (4) the number of mammary lobular acini, the acinar lumen diameter, and the duct diameter in rats.
In the study of Embodiment 1, after 30 days of administration, the uterus weight, ovary weight, and body weight of the rats were measured. The uterine index was calculated as uterine weight/body weight, and the ovarian index was calculated as ovary weight/body weight. A comparison of the ovarian index and uterine index among the different groups is shown in FIG. 2, and the corresponding data are presented in Table 3.

[3] = tested on: rat model of breast hyperplasia; assay: Serum E2 and PROG levels in rat model of breast hyperplasia; conditions: after 30 days of administration; assay kit; result in words
Excerpt: as §1, §2, §3, §4, §5, §6, §7
In the study of Embodiment 1, after 30 days of administration, serum E2 and PROG levels in rats of each group were measured using assay kits.

[4] = tested on: rat model of breast hyperplasia; assay: Histopathological evaluation (H&E) of mammary glands in rat model of breast hyperplasia; parameters: key to Histopathological Examination Score of mammary gland: Absence of a lesion was scored as 0; 1: very slight; 2: mild; 3: moderate; 4: severe; conditions: after 30 days of administration; for Breast hyperplasia compared with the model group: H&E pathology, result in words; for Histopathological Examination Score of mammary gland: individual animals No. 1-8, H&E staining
Excerpt: as §1, §2, §3, §4, §5, §6, §7
In the study of Embodiment 1, after 30 days of administration, mammary gland tissues from rats in each group were collected, dehydrated, embedded, and sectioned. The sections were subjected to H&E staining and pathological analysis.

[5] = Day 0 of treatment (baseline after modeling)

With `CC/C(=C(\c1ccccc1)c1ccc(OCCN(C)C)cc1)c1ccccc1` [tamoxifen] the “Nipple Height” value [1, 5] was 1.94 ± 0.16 mm, the “Nipple Diameter” value [1, 5] was 1.63 ± 0.12 and the “Nipple Height” value ([1]; Day 15 of treatment) was 1.70 ± 0.17 mm. For the same compound, the “Nipple Diameter” value ([1]; Day 15 of treatment) was 1.28 ± 0.14, the “Nipple Height” value ([1]; Day 30 of treatment) was 1.56 ± 0.12 mm and the “Nipple Diameter” value ([1]; Day 30 of treatment) was 1.11 ± 0.10. For the same compound, the “Change in nipple diameter compared with the model group” value [1] was “decreases”, the “Change in nipple height compared with the model group” value [1] was “decreases” and the “Ovarian index (ovary weight/body weight)” value [2] was 0.145 ± 0.052%. For the same compound, the “Uterine index (uterine weight/body weight)” value [2] was 0.050 ± 0.015 %, the “Change in ovarian index compared with the model group” value [2] was “decreases” and the “Change in uterine index compared with the model group” value [2] was “decreases”. The “Serum E2 level compared with the model group” value [3] was “significantly decreased”, the “Serum PROG level compared with the model group” value [3] was “significantly increased” and the “Breast hyperplasia compared with the model group” value [4] was “alleviated”. The “Histopathological Examination Score of mammary gland” value [4] was 0 and 1 (4×) and 2 (3×).

`CC(C)(CO)c1cc2cc(NC(=O)C3(c4ccc5c(c4)OC(F)(F)O5)CC3)c(F)cc2n1C[C@@H](O)CO` [tezacaftor] was tested, and the “Nipple Height” value [1, 5] was 2.03 ± 0.12 mm, the “Nipple Diameter” value [1, 5] was 1.63 ± 0.14 and the “Nipple Height” value ([1]; Day 15 of treatment) was 1.73 ± 0.21 mm. For the same compound, the “Nipple Diameter” value ([1]; Day 15 of treatment) was 1.24 ± 0.13, the “Nipple Height” value ([1]; Day 30 of treatment) was 1.61 ± 0.13 mm and the “Nipple Diameter” value ([1]; Day 30 of treatment) was 1.12 ± 0.08. For the same compound, the “Change in nipple diameter compared with the model group” value [1] was “significantly reduced; also recorded: decreases”, the “Change in nipple height compared with the model group” value [1] was “significantly reduced; also recorded: decreases” and the “Ovarian index (ovary weight/body weight)” value [2] was 0.186 ± 0.088%. The “Uterine index (uterine weight/body weight)” value [2] was 0.055 ± 0.012 %, the “Change in ovarian index compared with the model group” value [2] was “decreases” and the “Change in uterine index compared with the model group” value [2] was “significantly reduced; also recorded: decreases”. The “Serum E2 level compared with the model group” value [3] was “significantly decreased; also recorded: significantly improved”, the “Serum PROG level compared with the model group” value [3] was “significantly increased; also recorded: significantly improved” and the “Breast hyperplasia compared with the model group” value [4] was “alleviated; also recorded: alleviating breast hyperplasia”. For the same compound, the “Histopathological Examination Score of mammary gland” value [4] was 1 (4×) and 2 (4×).
